From ChEMBL document CHEMBL1141170, “Rational approach to discover multipotent anti-Alzheimer drugs” (J Med Chem, 2005)
pIC50: −log10 of the molar value.

What was measured:
Acetylcholinesterase = Acetylcholinesterase (Homo sapiens, UniProt P22303)
Description: Inhibitory concentration against human recombinant acetylcholinesterase

Cholinesterase = Cholinesterase (Homo sapiens, UniProt P06276)
Description: Inhibitory concentration against human recombinant butyrylcholinesterase

Homo sapiens [1] = organism: Homo sapiens; test: Percentage increase of intracellular reactive oxygen species in neuronal cells at 0 uM; assay type: functional
Homo sapiens [2] = organism: Homo sapiens; test: Percentage increase of intracellular reactive oxygen species in neuronal cells at 1 uM; assay type: functional
Homo sapiens [3] = organism: Homo sapiens; test: Percentage increase of intracellular reactive oxygen species in neuronal cells at 5 uM; assay type: functional
Homo sapiens [4] = organism: Homo sapiens; test: Percentage increase of intracellular reactive oxygen species in neuronal cells at 0.5 uM; assay type: functional
Homo sapiens [5] = organism: Homo sapiens; test: Percentage increase of intracellular reactive oxygen species in neuronal cells at 10 uM; assay type: functional
Homo sapiens [6] = organism: Homo sapiens; test: Percentage increase of intracellular reactive oxygen species in neuronal cells at 50 uM; assay type: functional
Homo sapiens [7] = organism: Homo sapiens; test: Percentage increase of intracellular reactive oxygen species in neuronal cells at 0.1 uM; assay type: functional
Homo sapiens [8] = organism: Homo sapiens; test: Percentage increase of intracellular reactive oxygen species in neuronal cells at 10 uM; Cytotoxicity; assay type: functional
Homo sapiens [9] = organism: Homo sapiens; test: Percentage increase of intracellular reactive oxygen species in neuronal cells at 50 uM; Cytotoxicity; assay type: functional

Cholinesterase, sequence (P06276 whole entry): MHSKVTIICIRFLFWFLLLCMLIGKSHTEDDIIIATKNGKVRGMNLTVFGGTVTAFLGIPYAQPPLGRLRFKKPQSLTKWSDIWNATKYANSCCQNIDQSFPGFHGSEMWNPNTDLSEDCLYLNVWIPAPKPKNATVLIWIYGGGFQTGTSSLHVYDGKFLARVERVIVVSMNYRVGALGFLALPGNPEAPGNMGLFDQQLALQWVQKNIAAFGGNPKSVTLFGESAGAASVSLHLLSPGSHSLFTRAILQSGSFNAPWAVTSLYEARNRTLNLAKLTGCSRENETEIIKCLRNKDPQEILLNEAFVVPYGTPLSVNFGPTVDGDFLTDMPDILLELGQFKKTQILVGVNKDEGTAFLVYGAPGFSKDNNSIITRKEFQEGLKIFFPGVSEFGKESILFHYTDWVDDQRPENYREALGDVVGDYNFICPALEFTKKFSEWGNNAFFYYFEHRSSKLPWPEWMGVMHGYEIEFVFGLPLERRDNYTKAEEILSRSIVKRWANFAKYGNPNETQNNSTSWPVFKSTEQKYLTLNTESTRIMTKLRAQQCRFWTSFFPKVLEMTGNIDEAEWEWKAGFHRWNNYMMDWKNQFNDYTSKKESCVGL
Acetylcholinesterase, sequence (P22303 whole entry): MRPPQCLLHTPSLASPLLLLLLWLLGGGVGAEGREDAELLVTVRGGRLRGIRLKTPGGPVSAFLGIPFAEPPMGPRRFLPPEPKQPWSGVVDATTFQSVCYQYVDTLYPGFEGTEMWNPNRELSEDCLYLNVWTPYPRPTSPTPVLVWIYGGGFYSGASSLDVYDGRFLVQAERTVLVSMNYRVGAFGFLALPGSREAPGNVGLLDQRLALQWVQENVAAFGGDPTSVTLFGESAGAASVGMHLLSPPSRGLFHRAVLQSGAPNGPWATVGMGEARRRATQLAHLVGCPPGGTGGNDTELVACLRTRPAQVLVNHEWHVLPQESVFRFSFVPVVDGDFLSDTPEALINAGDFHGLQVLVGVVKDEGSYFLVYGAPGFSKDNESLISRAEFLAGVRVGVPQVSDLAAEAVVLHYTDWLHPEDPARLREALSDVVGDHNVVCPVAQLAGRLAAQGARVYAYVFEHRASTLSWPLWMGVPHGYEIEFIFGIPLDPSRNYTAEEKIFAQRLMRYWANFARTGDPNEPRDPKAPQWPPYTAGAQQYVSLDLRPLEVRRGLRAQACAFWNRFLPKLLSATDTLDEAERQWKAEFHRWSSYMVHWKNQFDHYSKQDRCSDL

SMILES | pIC50 (Acetylcholinesterase) | pIC50 (Cholinesterase) | Activity (Homo sapiens [1]) | Activity (Homo sapiens [2]) | Activity (Homo sapiens [3]) | Activity (Homo sapiens [4]) | Activity (Homo sapiens [5]) | Activity (Homo sapiens [6]) | Activity (Homo sapiens [7]) | Activity (Homo sapiens [8]) | Activity (Homo sapiens [9])
Nc1c2c(nc3cc(Cl)ccc13)CC(CNC(=O)CCCCC1CCSS1)CC2 (configuration not stated) | 5.96 | 6.48 | – | – | – | – | – | – | – | – | –
O=C(CCCCC1CCSS1)NCCCNc1c2c(nc3cc(Cl)ccc13)CCCC2 (racemic) [LIPOCRINE] | – | – | 86% | 77% | 61.67% | 95% | 51.25% | 30.5% | 88.75% | – | –
NCCCNc1c2c(nc3cc(Cl)ccc13)CCCC2 | – | 5.59 | 86% | 96.67% | 82.5% | 99.67% | – | – | 99.5% | Toxic | Toxic
